“Also recorded” adds a separate entry of the source. Where two headings read alike, the source gives them in different places.
What was measured:
[1] = test system: γ-H2AX in Hs68 cells; experiment: γ-H2AX flow cytometry in normal fibroblasts; type: cell-based, human; conditions: 300 nM, alone or in combination with cisplatin, 24 hours
Procedure: The Hs68 Normal foreskin fibroblast cell line was grown in DMEM-high glucose/1× Glutamax/10% fetal bovine serum and was plated at 30,000 cells/well in Corning 6 well tissue culture treated plates. Cells were incubated at 37° C. for 24 hours prior to addition of the first treatment. […] Cells were treated to 24 hours post-initial treatment, with 10 μM EdU added at hour 23. Cells were collected and fixed in 1% paraformaldehyde. Cells were incubated with pacific blue azide dye as described by Thermo Scientific. Cells were then incubated with antibody against γ-H2AX at a ratio of 1:50 before incubation with FarRed dye and RNase. Cells were analyzed on a BD Celesta and data compiled using FloJo and GraphPad (FIG. 6).

[2] = test system: OVCAR-3 cells; experiment: CellTiter Glo cell proliferation assay; type: cell-based, human; conditions: six days
Procedure: Plates were returned to the incubator for six additional days. On day six post dosing, plates were removed and treated with CellTiter Glo reagent following manufacturer's specifications. Plates were incubated 45 minutes at room temperature and run on Biotek luminometer with 1 sec/well detection. Results were converted to Microsoft Excel and transferred to Graphpad Prism for analysis. […] These cell types are distinguished by either gained of cyclin E1 expression or activation (Kuramochi) or intrinsic amplification of cyclin E1 (OVCAR-3, COV318).
In a similar manner, OVCAR-3 cells were grown in RPMI-1640, 1× Glutamax, 10% FBS and 1×ITS at 37° C., 5% CO2. Cells were plated at 500 cells per well in white wall/clear bottom plates and incubated overnight. […] Plates returned to incubator for six additional days. On day six post dosing, plates were removed and treated with CellTiter Glo reagent following manufacturer's specifications. Plates were incubated 45 minutes at room temperature and run on Biotek luminometer with 1 sec/well detection. Results were converted to Microsoft Excel and transferred to GraphPad Prism for analysis.

[3] = test system: FUOV-1 cells; experiment: CellTiter-Glo cell proliferation assay; type: cell-based; conditions: Homo sapiens, 144 h; 6 days; read-out: IC50 in FUOV1 cells
Procedure: The Kuramochi human ovarian carcinoma cell line was grown in RPMI-1640/1× Glutamax/10% fetal bovine serum and the FUOV-1 human ovarian carcinoma cell line was grown in DMEM/F12/1× Glutamax/10% fetal bovine serum and both were plated at 1,000 cells/well in Corning 96 well white wall/clear bottom tissue culture treated plates. […] Plates were removed from incubator at each specified timepoint and treated with CellTiter-Glo (Promega, Inc) following manufacturer specifications. Plates were then read on CLARIOstar luminometer with 1 sec/well integration. Results were converted to Microsoft Excel and transferred to GraphPad Prism for Analysis (FIG. 16A-B).

[4] = test system: H82 (NCIH82) cells; experiment: CellTiter Glo cell proliferation assay; type: cell-based; conditions: six days
Procedure: Plates returned to incubator for six additional days. On day six post dosing, plates were removed and treated with CellTiter Glo reagent following manufacturer's specifications. Plates incubated 45 minutes at room temperature and run on a Biotek luminometer with 1 sec/well detection. Results were converted to Microsoft Excel and transferred to GraphPad Prism for analysis.

[5] = test system: CYP1A2 transcription; experiment: CYP induction (transcription); type: in vitro ADME; conditions: up to 3 μM, 24 hours
[6] = test system: CYP2B6 transcription; experiment: CYP induction (transcription); type: in vitro ADME; conditions: up to 3 μM, 24 hours
[7] = GLP 28-day oral toxicity and toxicokinetics study; type: in vivo, Beagle dogs; conditions: for AUC0-24 / AUC(0-t) / Cmax / Tmax: Beagle, po
Procedure: Nominal dose values and sampling times were used for calculations. Any concentration reported as BLQ (LLOQ<1.0 ng/mL) was set equal to zero. Toxicokinetic analyses included Cmax, Tmax, AUC0-24, t1/2, RA Cmax, and RA AUC0-24. Forty (20 per sex) Beagle dogs were randomly assigned to groups and dosed twice daily (approximately 8 hours+1-hour apart) via oral gavage for 28 consecutive days.
Based on the absence of dose-limiting toxicity, the 28-day highest nonseverely toxic dose (HNSTD) was 250 mg/kg BID (500 mg/kg/day).

[8] = test system: MCF7 parental and therapy-resistant (LYR, FR, LYFR, PDR) cells; experiment: Proliferation (DAPI cell count, 2 doubling times) in parental and therapy-resistant cells; type: cell-based, human; conditions: with the corresponding resistant drug fixed
Procedure: (§1) The doubling time of each cell line was calculated and plates were removed from incubator after 2 doubling times. Cells were fixed and stained with DAPI and imaged with automated counting of cell number.

[9] = test system: T47D parental and therapy-resistant (LYR, FR, LYFR, PDR) cells; experiment: as above; type: cell-based, human; conditions: with the corresponding resistant drug fixed
Procedure: as §1

[10] = target: MATE2-K (Homo sapiens, UniProt Q86VL8); experiment: SLC transporter inhibition in HEK293 cells
Chain of MATE2-K (Q86VL8 1-566 isoform Q86VL8-3): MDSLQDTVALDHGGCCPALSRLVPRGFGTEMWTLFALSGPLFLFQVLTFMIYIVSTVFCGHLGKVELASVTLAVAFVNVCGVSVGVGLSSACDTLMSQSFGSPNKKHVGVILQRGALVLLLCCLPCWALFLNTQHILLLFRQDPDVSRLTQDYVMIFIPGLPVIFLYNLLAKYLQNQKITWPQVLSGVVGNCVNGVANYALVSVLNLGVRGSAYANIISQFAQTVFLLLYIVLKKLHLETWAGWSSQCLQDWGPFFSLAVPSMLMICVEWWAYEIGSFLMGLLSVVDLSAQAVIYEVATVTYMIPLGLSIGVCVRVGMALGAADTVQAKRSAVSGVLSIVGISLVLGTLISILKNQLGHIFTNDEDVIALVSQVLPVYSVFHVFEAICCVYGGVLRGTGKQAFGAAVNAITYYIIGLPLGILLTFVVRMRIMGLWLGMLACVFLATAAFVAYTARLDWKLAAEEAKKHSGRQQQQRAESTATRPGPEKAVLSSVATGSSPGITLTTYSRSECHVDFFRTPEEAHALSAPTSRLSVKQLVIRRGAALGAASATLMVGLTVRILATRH

[11] = female, dog, in vivo, 20 mg/kg/day
[12] = female, dog, in vivo, 100 mg/kg/day
[13] = female, dog, in vivo, 500 mg/kg/day
[14] = male, dog, in vivo, 100 mg/kg/day
[15] = male, dog, in vivo, 500 mg/kg/day

NS(=O)(=O)c1ccc(Nc2ncc3cc4n(c3n2)C2(CCCCC2)C(=O)NN4)cc1 [Compound I]
percent of γ-H2AX-positive cells [1]: lower percent of γ-H2AX-positive cells compared with control | cell viability compared with palbociclib ([2]; CCNE1 amplified): potently decreases cell viability | IC50 ([2]; Homo sapiens, OVCAR-3, 144 h): 49 nM | IC50 [3]: 16 nM | inhibition compared with palbociclib [4]: low nanomolar concentrations | induction of CYP1A2 transcription [5]: no observed induction | induction of CYP2B6 transcription [6]: no observed induction | tolerability ([7]; PO, up to 28 days, up to 250 mg/kg BID): generally well tolerated; also recorded: well tolerated with no dose-limiting toxicities observed | 28-day NOAEL ([7]; dog, in vivo): did not identify a 28-day NOAEL | accumulation after 28 days of BID dosing ([7]; dog, in vivo): Modest accumulation | bone marrow cellularity ([7]; dog, in vivo): moderately decreased bone marrow cellularity | AUC0-24 [7, 11]: 1680 ng·h/mL | AUC(0-t) ([7]; female, dog, in vivo, 20 mg/kg/day, AUC0-24): 2600 ng·h/mL | Cmax ([7]; female, dog, in vivo, 20 mg/kg/day, Cmax): 267 ng/mL | Tmax [7, 11]: 8.8 h | AUC0-24 [7, 12]: 5170 ng·h/mL | AUC(0-t) ([7]; female, dog, in vivo, 100 mg/kg/day, AUC0-24): 9160 ng·h/mL | Cmax ([7]; female, dog, in vivo, 100 mg/kg/day, Cmax): 725 ng/mL | Tmax [7, 12]: 10 h | AUC(0-t) ([7]; female, dog, in vivo, 250 mg/kg, plasma AUC0-24): 11700 ng·h/mL | Cmax ([7]; female, dog, in vivo, 250 mg/kg, plasma Cmax): 961 ng/mL | AUC0-24 [7, 13]: 11700 ng·h/mL | AUC(0-t) ([7]; female, dog, in vivo, 500 mg/kg/day, AUC0-24): 10100 ng·h/mL | Cmax ([7]; female, dog, in vivo, 500 mg/kg/day, Cmax): 919 ng/mL | Tmax [7, 13]: 14 h | AUC(0-t) ([7]; female, dog, in vivo, plasma AUC0-24): 2600 ng·h/mL | Cmax ([7]; female, dog, in vivo, plasma Cmax): 267 ng/mL | AUC0-24 ([7]; male, dog, in vivo, 20 mg/kg/day): 1430 ng·h/mL | AUC(0-t) ([7]; male, dog, in vivo, 20 mg/kg/day, AUC0-24): 2460 ng·h/mL | AUC0-24 [7, 14]: 10600 ng·h/mL | AUC(0-t) ([7]; male, dog, in vivo, 100 mg/kg/day, AUC0-24): 6210 ng·h/mL | Cmax ([7]; male, dog, in vivo, 100 mg/kg/day, Cmax): 459 ng/mL | Tmax [7, 14]: 12 h | AUC(0-t) ([7]; male, dog, in vivo, 250 mg/kg, plasma AUC0-24): 18800 ng·h/mL | Cmax ([7]; male, dog, in vivo, 250 mg/kg, plasma Cmax): 1500 ng/mL | AUC0-24 [7, 15]: 18800 ng·h/mL | AUC(0-t) ([7]; male, dog, in vivo, 500 mg/kg/day, AUC0-24): 13300 ng·h/mL | Cmax ([7]; male, dog, in vivo, 500 mg/kg/day, Cmax): 1220 ng/mL | Tmax [7, 15]: 14 h | AUC(0-t) ([7]; male, dog, in vivo, plasma AUC0-24): 2460 ng·h/mL | Cmax ([7]; male, dog, in vivo, plasma Cmax): 307 ng/mL | cellular proliferation in therapy-resistant cells [8]: low, nanomolar IC50 values; also recorded: dose-dependent decrease in cellular proliferation | cellular proliferation in therapy-resistant cells [9]: low, nanomolar IC50 values; also recorded: dose-dependent decrease in cellular proliferation | IC50 [10]: 740 nM | Maximum Percent inhibition ([10]; MATE2-K, HEK293 cells): 69% | IC50 ([10]; human): 740 nM

Reference: patent publication US20250199015A1, “CYCLIN-DEPENDENT KINASE 2 INHIBITORS FOR MEDICAL TREATMENT” (INCYCLIX BIO, LLC, priority 2022, published 2025)
